What was measured:
[1] = test system: MCF-10A cells (normal breast cells); assay: MTT cytotoxicity assay, MCF-10A cells; type: cell-based, Human; conditions: compared to cells treated with Paclitaxel-Heparin-FA
tubulin = assay: Tubulin polymerization assay; conditions: 10 μM paclitaxel equivalent, absorbance 340 nm, FIG. 3
tumor cell cultures = conditions: cited from earlier work
factor Xa = assay: Factor Xa chromogenic assay (anti Factor Xa heparin activity); type: biochemical; conditions: FIG. 2

Row | Compound | IC50 values for inhibition of growth of tumor cell cultures (tumor cell cultures) | further results
1 | Nc1nc2ncc(CNc3ccc(C(=O)N[C@@H](CCC(=O)O)C(=O)O)cc3)nc2c(=O)[nH]1 [free folate, folic acid] |  | viability of normal cells [1]: relatively low
2 | CC(=O)O[C@H]1C(=O)[C@@]2(C)[C@H]([C@H](OC(=O)c3ccccc3)[C@]3(O)C[C@H](OC(=O)[C@H](O)[C@@H](NC(=O)c4ccccc4)c4ccccc4)C(C)=C1C3(C)C)[C@]1(OC(C)=O)CO[C@@H]1C[C@@H]2O [paclitaxel] |  | ability to induce microtubule assembly (tubulin polymerization) (tubulin): clear increase in absorbance
3 | calicheamicin | low picomolar range | 
4 | dynemicin | low picomolar range | 
5 | esperamicin | low picomolar range | 
6 | heparin |  | bioactivity measured by factor Xa chromogenic assay (factor Xa): 179 IU/mg

— patent publication US20090004118A1, “Multifunctional Nanoparticle Conjugates And Their Use” (priority 2004, published 2009)
